Assays:
[1] = test system: U87-luc orthotopic brain xenograft; experiment: Pharmacodynamic study in U87-luc orthotopic brain xenograft model, median survival; assay type: in vivo, BALB/c nude mice; conditions: Temozolomide 3 mg/kg IP Day 0, 7, 14, 21 and 28; survival time range in brackets
From the text: Pharmacodynamic study of the compound 17 of this disclosure and the combination of compound 17 of the disclosure and temozolomide in a U87-luc orthotopic brain xenograft model
Adult female BALB/c nude mice were used as test animals. A U87-luc orthotopic brain xenograft model was used to study the effect of representative compound 17 of this disclosure on the median survival of female BALB/c nude mice after intragastric administration.
Healthy adult female BALB/c nude mice, 8 mice/group, 6-8 weeks old, weighing 18-22 g, purchased from Shanghai SIPPR-BK Laboratory Animal Co., Ltd., Animal Production License No: 2008001658261; 2008001658263. • 7.2.3 Preparation of the test compounds
An appropriate amount of compound 17 was weighed, and added with 0.1% hydroxyethyl cellulose/0.5% TWEEN®80 as vehicle to 0.3125 mg/ml;
An appropriate amount of Temozolomide sample was weighed, and added with 0.1% CMC-Na+0.25% TWEEN®80 as vehicle to 0.3 mg/ml.
Adult female BALB/c nude mice were anesthetized by intraperitoneal injection of sodium pentobarbital at a dose of 80 mg/kg. To relieve pain, animals were injected subcutaneously with buprenorphine at the time points 30 minutes before operation and 6 hours after operation at a dose of 0.1 mg/kg. Animals were observed after anesthesia until all animals had awakened.
The anesthetized animals were properly fixed, the animals' head skin was sterilized with 70% ethanol, and an approximately 10 mm long incision was made on the right side of the midline from the forehead to the ear line. 3×10^5 U87-luc cells (3 μl, mixture of PBS and Matrigel at a ratio of 4:1) were inoculated at the right frontal lobe that is 2 mm away from the right side of the bregma and is 1 mm away from the front side of the coronal suture in each animal. The incision was sutured with a No. 6 suture, and sterilized with polyvinylpyrrolidone. Animals are kept warm until anabiosis. Six days after tumor cell transplantation, tumor animals were grouped by stratified randomization based on […] signal intensity values, and the average bioluminescence reached 2.812E+07 photons/sec when the groups were administered in groups. Different animal groups were administered at different doses for a total of 35 days.

Pim-1 = Pim-1 (Homo sapiens (Human), UniProt P11309); experiment: Kinase inhibitory activity on Pim-1; assay type: biochemical
Experimental: (§1) 1.2 Experimental Preparation • 1.2.1 Preparation of Kinase Reaction Buffer I: The 5×Reaction Buffer A (Promega; V307A-C) provided in the kit was mixed and diluted with MILLI-Q® H2O and 0.1 M DTT (dithiothreitol) to give 4× kinase buffer, and then MILLI-Q® H2O was further added to finally formulate the solution into 1× Kinase buffer.
(§2) 1 μl of 10 mM standard substance stock solution was taken and added to 9 μl of kinase reaction buffer I and mixed well; then 90 μl of kinase reaction buffer I was added and mixed well; then 100 μl of kinase reaction buffer I was added and mixed well. The final concentration was 50 μM. • b. 40 μl of kinase reaction buffer II was added into B2 to B10 of a 96-well plate, and 50 μl of the above solution was added into B1; • c. 10 μl of solution was taken from well B1, added into B2, and mixed well; then 10 μl of the resulting solution was taken and added into B3, and dilution was carried out in sequence to B9, so as to obtain control solutions that are diluted by 5-fold sequentially. • (2) Preparation of test compound solution: • a. Test compound solutions at a certain concentration were taken, respectively, diluted with kinase reaction buffer I to a final concentration of 50 μM compound solution; • b. 40 μl of kinase reaction buffer II was added into H2 to H10 of the 96-well plate; and 50 μl of the above solution was added into H1; • c. 10 μl of solution was taken from well H1, added into H2, and mixed well; then 10 μl of the resulting solution was taken and added into H3, and dilution was carried out in sequence to H9, so as to obtain test compound solutions that are diluted by 5-fold sequentially. • 1.2.4 Preparation of a mixed solution of reaction substrate and ATP: • a. Preparation of ATP solution: • 200 μl of 0.1 mM ATP solution: 2 μl of 10 mM ATP was added to 198 μl of kinase reaction buffer I; • 300 μl of 50 μM ATP solution: 150 μl of kinase reaction buffer I was added to 150 μl of the above 0.1 mM ATP solution; • b. Preparation of 300 μl of reaction substrate solution: • 150 μl 1 μg/μl reaction substrate stock solution was added to 150 μl kinase reaction buffer I, and mixed well; • c. The above a/b solutions were mixed to obtain mixed solutions, respectively.
(§3) 1.3 Experimental process: • 1.3.1: 2 μl of compound solutions of various concentrations were taken, added to a 384-well plate, and centrifuged 3 minutes; • 1.3.2: 4 μl of kinase solution was added to each well, centrifuged at 5000 rpm and 18° C. for 10 minutes, and shaken on a plate shaker for 10 minutes; • 1.3.3: 4 μl of mixed solution of substrate and ATP was added to each well, centrifuged at 5000 rpm and 18° C. for 10 minutes, and shaken on a plate shaker at 37° C. for 90 minutes; • 1.3.4: The 384-well plate was taken out, and allowed to stand to room temperature; • 1.3.5: 10 μl of ADP-GLO™ reagent was added to each well, centrifuged at 5000 rpm and 18° C. for 18 minutes, and shaken on a plate shaker at 25° C. for 40 minutes, and then the reaction was stopped; • 1.3.6: 20 μl of kinase detection reagent was added to each well, centrifuged at 5000 rpm and 18° C. for 10 minutes, and shaken on a plate shaker at 25° C. for 30 minutes; and • 1.3.7: M1000pro MICROPLATE READER was used to read […] values.
(§4) The inhibition rate of each compound at each concentration point was calculated by the formula as follows and curve fitting was performed by GraphPad Prism 5 software to obtain the IC50 value.

CDK4/CyclinE1 = CDK4/CyclinE1 (Homo sapiens, UniProt P11802); conditions: read-out: CDK4/CyclinE1 IC50
Experimental: Measurement of CDK kinase inhibitory activity of the compounds of this disclosure.
In vitro inhibitory effect of the compounds of the disclosure on CDK (CDK1, CDK4 and CDK6) kinase activity was tested by the following method.
(§5) 1.1 Instrument and Kit Information
as §1
The final concentration was 50 μM. • b. 40 μl of kinase reaction buffer II was added into B2 to B10 of a 96-well plate, and 50 μl of the above solution was added into B1; • c. […]
as §3, §4

CDK9/CyclinD3 = CDK9/CyclinD3 (Homo sapiens (Human), UniProt P50750); experiment: Kinase inhibitory activity, ADP-Glo Kinase Assay, CDK9/CyclinD3; assay type: biochemical
Experimental: as §5, §1, §2, §3, §4

CDK1/CyclinA2 = CDK1/CyclinA2 (Homo sapiens (Human), UniProt P06493); experiment: CDK kinase inhibitory activity, ADP-Glo Kinase Assay, CDK1/CyclinA2; assay type: biochemical
CDK6/CyclinD3 = CDK6/CyclinD3 (Homo sapiens (Human), UniProt Q00534); experiment: CDK kinase inhibitory activity, ADP-Glo Kinase Assay, CDK6/CyclinD3; assay type: biochemical; conditions: for CDK1/CDK6 / CDK9/CDK6 / Pim-1/CDK6: ratio of IC50s; for CDK1/CDK6: selectivity for CDK6 over CDK1; for CDK9/CDK6: selectivity for CDK6 over CDK9; for Pim-1/CDK6: selectivity for CDK6 over Pim-1

SMILES | Medium survival [1] | IC50 (Pim-1) | IC50 (CDK4/CyclinE1) | IC50 (CDK9/CyclinD3) | IC50 (CDK1/CyclinA2) | IC50 (CDK6/CyclinD3) | CDK1/CDK6 (CDK6/CyclinD3) | CDK9/CDK6 (CDK6/CyclinD3) | Pim-1/CDK6 (CDK6/CyclinD3)
Cn1nnc2c(C(N)=O)ncn2c1=O [Temozolomide, reference compound] | 47(38-83) days | – | – | – | – | – | – | – | –
CC1=Nc2c(F)cc(-c3nc(Nc4ccc(N5CCNCC5)cn4)ncc3F)cc2C12CCCC2 [Example 6, 5-fluoro-4-(7′-fluoro-2′-methylspiro[cyclopentane-1,3′-indol]-5′-yl)-N-(5-(piperazin-1-yl)pyridin-2-yl)pyrimidine-2-amino] | – | 15.1 nM | 80.9 nM | 0.42 nM | 152 nM | 6.45 nM | 23.59 | 0.06 | 2.33
CCN1CCN(Cc2ccc(Nc3ncc(F)c(-c4ccc5c(c4)C4(CCCC4)C(C)=N5)n3)nc2)CC1 [Example 9, N-(5-((4-ethylpiperazin-1-yl)methyl)pyridin-2-yl)-5-fluoro-4-(2′-methylspiro [cyclopentane-1,3′-indol]-5′-yl)pyrimidine-2-amino] | – | 174 nM | – | 14.4 nM | 268 nM | 20.4 nM | 13.13 | 0.71 | 8.51

Reference: patent publication US11091476B2, “Protein kinase inhibitors, preparation method and medical use thereof” (Gan & Lee Pharmaceuticals, priority 2015, dated 2021)
